pEC50: −log10 of the molar value.
Assay: Inhibition of ROCK1 in human GTM3 cells by impedance assay
With `Cc1c(-c2ccnc(N)n2)sc2ccc(C(N)c3ccccc3)cc12` (racemic) [(+/-)-4-(5-(amino(phenyl)methyl)-3-methylbenzo[b]thiophen-2-yl)pyrimidin-2-amine] the pEC50 was 5.85.
In the case of `Cc1c(-c2ccnc(N)n2)sc2ccc(CN)cc12` [4-(5-(aminomethyl)-3-methylbenzo[b]thiophen-2-yl)pyrimidin-2-amine], the pEC50 was < 5.00.
In the case of `COc1cccc(Cc2ccc3sc(-c4ccnc(N)n4)c(C)c3c2)c1` [4-(5-(3-methoxybenzyl)-3-methylbenzo[b]thiophen-2-yl)pyrimidin-2-amine], the pEC50 was < 5.00.
For `Cc1c(-c2ccnc(N)n2)sc2ccccc12` [4-(3-methylbenzo[b]thiophen-2-yl)pyrimidin-2-amine], the pEC50 was < 5.00.
Compound `Cc1c(-c2ccnc(N)n2)sc2ccc(Cc3cccc(O)c3)cc12` [3-((2-(2-aminopyrimidin-4-yl)-3-methylbenzo[b]thiophen-5-yl)methyl)phenol] has a pEC50 of 5.54.
For `Cc1c(-c2ccnc(N)n2)sc2ccc(Cc3cccc(C(=O)O)c3)cc12` [3-((2-(2-aminopyrimidin-4-yl)-3-methylbenzo[b]thiophen-5-yl)methyl)benzoic acid], the pEC50 was < 5.00.
Work on `CCC(N)c1ccc2sc(-c3ccnc(N)n3)c(C)c2c1` (racemic) [(+/-)-4-(5-(1-aminopropyl)-3-methylbenzo[b]thiophen-2-yl)pyrimidin-2-amine] yielded a pEC50 of 5.77.
With `COc1ccc(Cc2ccc3sc(-c4ccnc(N)n4)c(C)c3c2)cc1` [4-(5-(4-methoxybenzyl)-3-methylbenzo[b]thiophen-2-yl)pyrimidin-2-amine] the pEC50 was < 5.00.
For `Cc1c(-c2ccnc(N)n2)sc2ccc(C(N)C(C)C)cc12` (racemic) [(+/-)-4-(5-(1-amino-2-methylpropyl)-3-methylbenzo[b]thiophen-2-yl)pyrimidin-2-amine], the pEC50 was 5.68.
For `Cc1c(-c2ccnc(N)n2)sc2ccc(Cc3cccc(C(F)(F)F)c3)cc12` [4-(3-methyl-5-(3-(trifluoromethyl)benzyl)benzo[b]thiophen-2-yl)pyrimidin-2-amine], the pEC50 was < 5.00.
In the case of `Cc1c(-c2ccnc(N)n2)sc2ccc(-c3ccccc3)cc12` [4-(3-methyl-5-phenylbenzo[b]thiophen-2-yl)pyrimidin-2-amine], the pEC50 was < 5.00.
`COc1ccc(C(N)c2ccc3sc(-c4ccnc(N)n4)c(C)c3c2)cc1` (racemic) [(+/-)--4-(5-(amino(4-methoxyphenyl)methyl)-3-methylbenzo[b]thiophen-2-yl)pyrimidin-2-amine] gave a pEC50 of 5.59.
With `Cc1c(-c2ccnc(N)n2)sc2ccc(Cc3ccccc3)cc12` [4-(5-benzyl-3-methylbenzo[b]thiophen-2-yl)pyrimidin-2-amine] the pEC50 was < 5.00.
In the case of `CCCC(N)c1ccc2sc(-c3ccnc(N)n3)c(C)c2c1` (racemic) [(+/-)-4-(5-(1-aminobutyl)-3-methylbenzo[b]thiophen-2-yl)pyrimidin-2-amine], the pEC50 was 6.22.
With `COc1ccccc1Cc1ccc2sc(-c3ccnc(N)n3)c(C)c2c1` [4-(5-(2-methoxybenzyl)-3-methylbenzo[b]thiophen-2-yl)pyrimidin-2-amine] the pEC50 was < 5.00.
`Cc1c(-c2ccnc(N)n2)sc2ccc(C(N)c3cccc(Cl)c3)cc12` (racemic) [(+/-)--4-(5-(amino(3-chlorophenyl)methyl)-3-methylbenzo[b]thiophen-2-yl)pyrimidin-2-amine] gave a pEC50 of 5.57.
For `Cc1c(-c2ccnc(N)n2)sc2ccc(C(C)N)cc12` (racemic) [(+/-)-4-(5-(1-aminoethyl)-3-methylbenzo[b]thiophen-2-yl)pyrimidin-2-amine], the pEC50 was 5.38.
`Cc1cccc(C(N)c2ccc3sc(-c4ccnc(N)n4)c(C)c3c2)c1` (racemic) [(+/-)--4-(5-(amino(m-tolyl)methyl)-3-methylbenzo[b]thiophen-2-yl)pyrimidin-2-amine] gave a pEC50 of 5.72.
Work on `COc1cccc(C(N)c2ccc3sc(-c4ccnc(N)n4)c(C)c3c2)c1` (racemic) [(+/-)-4-(5-(amino(3-methoxyphenyl)methyl)-3-methylbenzo[b]thiophen-2-yl)pyrimidin-2-amine] yielded a pEC50 of 5.44.
`Cc1c(-c2ccnc(N)n2)sc2ccc(C(N)CC(C)C)cc12` (racemic) [(+/-)-4-(5-(1-amino-3-methylbutyl)-3-methylbenzo[b]thiophen-2-yl)pyrimidin-2-amine] showed a pEC50 of 5.85.
For `COC(=O)c1cccc(Cc2ccc3sc(-c4ccnc(N)n4)c(C)c3c2)c1` [methyl 3-((2-(2-aminopyrimidin-4-yl)-3-methylbenzo[b]thiophen-5-yl)methyl)benzoate], the pEC50 was < 5.00.
